Assay results published in US6878722B2, “Substituted cycloalkyl P1′ hepatitis C virus inhibitors” (Bristol-Myers Squibb Company, priority 2002, dated 2005).
Where two headings read alike, the source gives them in different places.

Tests used:
[1] = biological target: T1, HCV NS3/4A protease complex (BMS strain, genotype 1a) (Hepatitis C virus genotype 1a, UniProt P27958, C1454S); experiment: Recombinant HCV NS3/4A protease complex FRET peptide assay, BMS strain; type: biochemical; details: NS3/4A BMS Strain
T1 construct: DNA encoding the recombinant HCV NS3/4A protease complex (amino acids 1027 to 1711) for these strains; inferred from the pET21b vector and Ni-NTA purification; made in house; host or cells: Escherichia coli BL21 (DE3), pET21b
Excerpt: The purpose of this in vitro assay was to measure the inhibition of HCV NS3 protease complexes, derived from the BMS, H77C or J416S strains, as described below, by compounds of the present invention.
Serum from an HCV-infected patient was obtained from Dr. T. Wright, San Francisco Hospital. An engineered full-length cDNA (compliment deoxyribonucleic acid) template of the HCV genome (BMS strain) was constructed from DNA fragments obtained by reverse transcription-PCR (RT-PCR) of serum RNA (ribonucleic acid) and using primers selected on the basis of homology between other genotype 1a strains. […] The infectious clones, H77C (1a genotype) and J4L6S (1b genotype) were obtained from R. Purcell (NIH) and the sequences are published in Genbank (AAB67036, see Yanagi,M., Purcell,R. H., Emerson,S. U. and Bukh,J. Proc. Natl. Acad. Sci. U.S.A. 94(16),8738-8743 (1997); AF054247, see Yanagi,M., St Claire,M., Shapiro,M., Emerson,S. U., Purcell,R. H. and Bukh,J, Virology 244 (1), 161-172. (1998)).
The BMS, H77C and J4L6S strains were used for production of recombinant NS3/4A protease complexes. DNA encoding the recombinant HCV NS3/4A protease complex (amino acids 1027 to 1711) for these strains were manipulated as described by P. Gallinari et al. (see Gallinari P, Paolini C, Brennan D, Nardi C, Steinkuhler C, De Francesco R. Biochemistry. 38(17):5620-32, (1999)). Briefly, a three-lysine solubilizing tail was added at the 3′-end of the NS4A coding region. The cysteine in the P1 position of the NS4A-NS4B cleavage site (amino acid 1711) was changed to a glycine to avoid the proteolytic cleavage of the lysine tag. Furthermore, a cysteine to serine mutation was introduced by PCR at amino acid position 1454 to prevent the autolytic cleavage in the NS3 helicase domain. The variant DNA fragment was cloned in the pET21b bacterial expression vector (Novagen) and the NS3/4A complex was expressed in Escherichia. coli strain BL21 (DE3) (Invitrogen) following the protocol described by P. Gallinari et al. (see Gallinari P, Brennan D, Nardi C, Brunetti M, Tomei L, Steinkuhler C, De Francesco R., J. Virol. 72(8):6758-69 (1998)) with modifications. Briefly, NS3/4A expression was induced with 0.5 mM Isopropyl β-D-1-thiogalactopyranoside (IPTG) for 22 hr at 20° C. […] The cells were resuspended in lysis buffer (10 mL/g) consisting of 25 mM N-(2-Hydroxyethyl)Piperazine-N′-(2-Ethane Sulfonic acid) (HEPES), pH 7.5, 20% glycerol, 500 mM Sodium Chloride (NaCl), 0.5% Triton-X100, 1 ug/ml lysozyme, 5 mM Magnesium Chloride (MgCl2), 1 ug/ml DnaseI, 5 mM β-Mercaptoethanol (βME), Protease inhibitor—Ethylenediamine Tetraacetic acid (EDTA) free (Roche), homogenized and incubated for 20 mins at 4° C. The homogenate was sonicated and clarified by ultra-centrifugation at 235000 g for 1 hr at 4° C. Imidazole was added to the supernatant to a final concentration of 15 mM and the pH adjusted to 8.0. The crude protein extract was loaded on a Nickel-Nitrilotriacetic acid (Ni-NTA) column pre-equilibrated with buffer B (25 mM HEPES, pH 8.0, 20% glycerol, 500 mM NaCl, 0.5% Triton-X100, 15 mM imidazole, 5 mM βME). The sample was loaded at a flow rate of 1 mL/min. The column was washed with 15 column volumes of buffer C (same as buffer B except with 0.2% Triton-X100). The protein was eluted with 5 column volumes of buffer D (same as buffer C except with 200 mM Imidazole).
NS3/4A protease complex-containing fractions were pooled and loaded on a desalting column Superdex-S200 pre-equilibrated with buffer D (25 mM HEPES, pH7.5, 20% glycerol, 300 mM NaCl, 0.2% Triton-X100, 10 mM βME).

[2] = tested on: HCV replicon in Huh7 cells; experiment: HCV replicon cell-based assay (FRET); details: HCV replicon, read-out: EC50 range
Excerpt: An HCV replicon whole cell system was established as described by Lohmann V, Korner F, Koch J, Herian U, Theilmann L, Bartenschlager R., Science 285(5424):110-3 (1999). This system enabled us to evaluate the effects of our HCV Protease compounds on HCV RNA replication. Briefly, using the HCV strain 1B sequence described in the Lohmann paper (Assession number: AJ238799), an HCV cDNA was generated encoding the 5′ internal ribosome entry site (IRES), the neomycin resistance gene, the EMCV (encephalomyocarditis viurs)-IRES and the HCV nonstructural proteins, NS3-NS5B, and 3′ non-translated region (NTR). In vitro transcripts of the cDNA were transfected into the human hepatoma cell line, Huh7. […] Resulting cell lines were characterized for positive and negative strand RNA production and protein production over time.
Huh7 cells, constitutively expressing the HCV replicon, were grown in Dulbecco's Modified Eagle Media (DMEM) containing 10% Fetal calf serum (FCS) and 1 mg/ml G418 (Gibco-BRL). Cells were seeded the night before (1.5×10^4 cells/well) in 96-well tissue-culture sterile plates. Compound and no compound controls were prepared in DMEM containing 4% FCS, 1:100 Penicillin/Streptomysin, 1:100 L-glutamine and 5% DMSO in the dilution plate (0.5% DMSO final concentration in the assay). Compound/DMSO mixes were added to the cells and incubated for 4 days at 37° C. After 4 days, plates were rinsed thoroughly with Phosphate-Buffered Saline (PBS) (3 times 150 μl). The cells were lysed with 25 μl of a lysis assay reagent containing the FRET peptide (RET S1, as described for the in vitro enzyme assay). The lysis assay reagent was made from 5× cell Luciferase cell culture lysis reagent(Promega #E153A) diluted to 1× with distilled water, NaCl added to 150 mM final, the FRET peptide diluted to 10 μM final from a 2 mM stock in 100% DMSO. The plate was then placed into the Cytofluor 4000 instrument which had been set to 340 nm excitation/490 emission, automatic mode for 21 cycles and the plate read in a kinetic mode. EC50 determinations were carried out as described for the IC50 determinations.

T1 sequence (P27958 1658-1714, looked up, stated change not applied): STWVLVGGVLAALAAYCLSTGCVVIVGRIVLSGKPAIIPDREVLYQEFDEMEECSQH
T1 sequence (P27958 1027-1657, looked up, stated change not applied): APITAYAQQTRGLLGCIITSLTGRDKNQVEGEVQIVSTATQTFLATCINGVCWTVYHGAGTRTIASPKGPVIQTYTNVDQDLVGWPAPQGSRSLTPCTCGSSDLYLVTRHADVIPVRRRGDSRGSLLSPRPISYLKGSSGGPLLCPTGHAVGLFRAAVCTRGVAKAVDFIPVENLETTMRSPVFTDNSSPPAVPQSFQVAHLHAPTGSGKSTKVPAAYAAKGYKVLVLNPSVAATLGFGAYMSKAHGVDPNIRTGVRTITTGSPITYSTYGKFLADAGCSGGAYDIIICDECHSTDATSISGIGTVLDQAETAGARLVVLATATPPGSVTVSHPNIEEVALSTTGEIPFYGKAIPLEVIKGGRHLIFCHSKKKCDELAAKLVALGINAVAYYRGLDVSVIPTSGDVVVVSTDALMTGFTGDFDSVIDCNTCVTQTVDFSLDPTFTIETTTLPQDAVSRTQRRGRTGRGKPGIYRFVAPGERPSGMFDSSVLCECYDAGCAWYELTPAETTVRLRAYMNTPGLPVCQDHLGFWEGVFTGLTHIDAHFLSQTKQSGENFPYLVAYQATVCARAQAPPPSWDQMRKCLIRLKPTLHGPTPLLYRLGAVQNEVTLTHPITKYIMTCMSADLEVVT

Compound	IC50 ([1]; IC50 range) [nM]	EC50 ([2]; Hepatitis C virus, Huh-7) [nM]	IC50 ([1]; read-out: IC50 range) [nM]	EC50 [2] [nM]
C=C[C@@H]1C[C@]1(NC(=O)[C@@H]1C[C@@H](Oc2cc(-c3ccccc3)nc3cc(OC)ccc23)CN1C(=O)[C@@H](NC(=O)OCCOC)C(C)(C)C)C(=O)NS(=O)(=O)C1(Cc2ccccc2)CC1 [Compound 104]	50 to 500	500 to 5000		
C=CCCCCCCCCC1(S(=O)(=O)NC(=O)C2(NC(=O)C3CC(Oc4cc(-c5ccccc5)nc5cc(OC)ccc45)CN3C(=O)C(NC(=O)OC(C)(C)C)C(C)(C)C)CC2C=C)CC1 (stereo not drawn) [Compound 33]			< 50	50 to 500
C=C[C@@H]1C[C@]1(NC(=O)[C@@H]1C[C@@H](Oc2cc(-c3nc(C(C)C)cs3)nc3cc(OC)ccc23)CN1C(=O)[C@@H](NC(=O)OC(C)(C)C)C(C)(C)C)C(=O)OS(=O)(=O)C1(CCC)CC1 [Compound 77]	< 50	< 50		
COc1ccc2c(O[C@@H]3C[C@@H](C(=O)N[C@]4(C(=O)NS(=O)(=O)C5(CC6CC6)CC5)CC4C4CC4)N(C(=O)[C@@H](NC(=O)OC(C)(C)C)C(C)(C)C)C3)cc(-c3ccccc3)nc2c1 (stereo partly drawn) [Compound 205]	< 50	50 to 500		
C=C[C@@H]1C[C@]1(NC(=O)[C@@H]1C[C@@H](Oc2cc(-c3ccccc3)nc3cc(OC)ccc23)CN1C(=O)[C@@H](NC(=O)OC(C)(C)C)C(C)(C)C)C(=O)NS(=O)(=O)C1(Cc2ccccc2F)CC1 [Compound 41, {1-[2-{1-[1-(2-Fluoro-benzyl)-cyclopropanesulfonylaminocarbonyl]-2-vinyl-cyclopropylcarbamoyl}-4-(7-methoxy-2-phenyl-quinolin-4-yloxy)-pyrrolidine-1-carbonyl]-2,2-dimethyl-propyl}-carbamic acid tert-butyl ester]	< 50	50 to 500		
C=C[C@@H]1C[C@]1(NC(=O)[C@@H]1C[C@@H](Oc2cc(-c3ccccc3)nc3cc(OC)ccc23)CN1C(=O)[C@@H](NC(=O)OC(C)(C)C)C(C)(C)C)C(=O)NS(=O)(=O)C1(Cc2ccc(F)cc2)CC1 [Compound 40, {1-[2-{1-[1-(4-Fluoro-benzyl)-cyclopropanesulfonylaminocarbonyl]-2-vinyl-cyclopropylcarbamoyl}-4-(7-methoxy-2-phenyl-quinolin-4-yloxy)-pyrrolidine-1-carbonyl]-2,2-dimethyl-propyl}-carbamic acid tert-butyl ester]	< 50	50 to 500		
C=C[C@@H]1C[C@]1(NC(=O)[C@@H]1C[C@@H](Oc2cc(-c3ccccc3)nc3cc(OC)ccc23)CN1C(=O)[C@@H](NC(=O)OC(C)(C)C)C(C)(C)C)C(=O)NS(=O)(=O)C1(Cc2ncoc2-c2ccccc2)CC1 [Compound 46]	< 50	< 50		
C=CC1C[C@]1(NC(=O)[C@@H]1C[C@@H](Oc2cc(-c3ccccc3)nc3cc(OC)ccc23)CN1C(=O)[C@@H](NC(=O)OC(C)(C)C)C(C)(C)C)C(=O)NS(=O)(=O)C1(COC)CC1 (stereo partly drawn) [Compound 7, {1-[2-[1-(1-Methoxymethylcyclopropanesulfonylaminocarbonyl)-2-vinylcyclopropylcarbamoyl]-4-(7-methoxy-2-phenyl-quinolin-4--yloxy)pyrrolidine-1-carbonyl]-2,2-dimeth-ylpropyl}-carbamic acid tert-butyl ester]	< 50	< 50		
C=C[C@@H]1C[C@]1(NC(=O)[C@@H]1C[C@@H](Oc2cc(-c3ccccc3)nc3cc(OC)ccc23)CN1C(=O)[C@@H](NC(=O)CC1CCOCC1)C(C)(C)C)C(=O)NS(=O)(=O)C1(Cc2ccccc2)CC1 [Compound 59, 1-[3,3-Dimethyl-2-(2-tetrahydro-pyran-4-yl-acetylamino)-butyryl]-4-(7-methoxy-2-phenyl-quinolin-4-yloxy)-pyrrolidine-2-carboxylic acid [1-(1-benzyl-cyclopropanesulfonylaminocarbonyl)-2-vinyl-cyclopropyl]-amide]	< 50	50 to 500		
